# Data as given in US11285156B2, “Substituted piperazines as KRAS G12C inhibitors” (Amgen Inc., priority 2018, dated 2022).
# Target: GDP-bound KRAS protein (aa 1-169), containing both G12C and C118A amino acid substitutions (Homo sapiens (Human), UniProt P01116, C118A/G12C)
# Experiment: Coupled nucleotide exchange assay (SOS-mediated nucleotide exchange, AlphaScreen)
# Format: biochemical
# Settings: read-out: Coupled exchange IC50 (5 min; μM); 5 min compound pre-incubation
# Procedure: Coupled Nucleotide Exchange Assay:
# Following compound pre-incubation, purified SOS protein (aa 564-1049) and GTP (Roche 10106399001) were added to the assay wells and incubated for an additional 30 min (for 5 min compound pre-incubation) or 1 hour (for 2 hour compound pre-incubation). […] The assay plates were then read on a PerkinElmer EnVision Multilabel Reader, using AlphaScreen® technology, and data were analyzed using a 4-parameter logistic model to calculate IC50 values.
# GDP-bound KRAS protein (aa 1-169), containing both G12C and C118A amino acid substitutions, sequence (P01116 other isoform, or with tags, fused parts or gaps G12C/C118A): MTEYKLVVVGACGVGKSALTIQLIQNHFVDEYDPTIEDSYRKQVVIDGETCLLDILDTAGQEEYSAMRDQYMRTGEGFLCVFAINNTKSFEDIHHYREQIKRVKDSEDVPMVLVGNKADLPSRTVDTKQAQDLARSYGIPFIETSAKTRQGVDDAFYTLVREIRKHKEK
row,Compound,IC50
1,"C=CC(=O)N1C[C@H](C)N(c2nc(=O)n(-c3c(C(C)C)ncnc3C(C)C)c3nc(-c4ccccc4S(C)(=O)=O)c(Cl)cc23)C[C@H]1C [Example 100-7, 6-Chloro-1-(4,6-diisopropylpyrimidin-5-yl)-4-[(2S,5R)-2,5-dimethyl-4-prop-2-enoyl-piperazin-1-yl]-7-(2-methylsulfonylphenyl) pyrido[2,3-d]pyrimidin-2-one]",5.1 µM
2,"CC(C)c1ncnc(C(C)C)c1-n1c(=O)nc(N2CCN(C(=O)/C=C/CN(C)C)C[C@@H]2C)c2cc(Cl)c(-c3ccccc3F)nc21 [Example 102-2, 6-Chloro-1-(4,6-diisopropylpyri-midin-5-yl)-4-[(2S)-4-[(E)-4-(dimethylamino)but-2-enoyl]-2-methyl-piperazin-1-yl]-7-(2-fluorophenyl) pyrido[2,3-d]pyrimidin-2-one]",1.23 µM
3,"C=CC(=O)N1C[C@H](C)N(c2nc(=O)n(-c3c(C)cc(P(C)(C)=O)cc3C(C)C)c3nc(-c4ccccc4F)c(Cl)cc23)C[C@H]1C [Example 102-7, 6-Chloro-1-(4-dimethylphosphoryl-2-isopropyl-6-methyl-phenyl)-4-[(2S,5R)-2,5-dimethyl-4-prop-2-enoyl-piperazin-1-yl]-7-(2-fluorophenyl) pyrido[2,3-d]pyrimidin-2-one]",0.376 µM
4,"C=CC(=O)N1C[C@H](C)N(c2nc(=O)n(-c3c(C(C)C)ccnc3C(=O)N(C)C)c3nc(-c4ccccc4F)c(Cl)cc23)C[C@H]1C [Example 102-8, 3-[6-Chloro-4-[(2S,5R)-2,5-dimethyl-4-prop-2-enoyl-piperazin-1-yl]-7-(2-fluorophenyl)-2-oxo-pyrido[2,3-d]pyrimidin-1-yl]-4-isopropyl-N,N-dimethyl-pyridine-2-carboxamide]",184 µM
5,"C=CC(=O)N1C[C@H](C)N(c2nc(=O)n(-c3c(C)ccnc3C(C)C)c3nc(-c4ccccc4F)c(Cl)nc23)C[C@H]1C [Example 106-6, 6-Chloro-4-[(2S,5R)-2,5-dimethyl-4-prop-2-enoyl-piperazin-1-yl]-7-(2-fluorophenyl)-1-(2-isopropyl-4-methyl-3-pyridyl)pteridin-2-one]",0.322 µM
6,"C=CC(=O)N1C[C@@H](C)N(c2nc(=O)n(-c3c(C)ccnc3C(C)C)c3nc(-c4ccccc4F)c(Cl)nc23)[C@@H](C)C1 [Example 106-7, 6-Chloro-4-[(2R,6S)-2,6-dimethyl-4-prop-2-enoyl-piperazin-1-yl]-7-(2-fluorophenyl)-1-(2-isopropyl-4-methyl-3-pyridyl)pteridin-2-one]",0.301 µM
7,"C=CC(=O)N1C[C@@H](C)N(c2nc(=O)n(-c3c(C)ccnc3C(C)C)c3nc(-c4ccccc4F)c(Cl)nc23)[C@@H](C)C1 [Example 106-7-1, 6-Chloro-4-[(2R,6S)-2,6-dimethyl-4-prop-2-enoyl-piperazin-1-yl]-7-(2-fluorophenyl)-1-(2-isopropyl-4-methyl-3-pyridyl)pteridin-2-one]",1.98 µM
8,"C=CC(=O)N1CCN(c2nc(=O)n(CC(C)(C)C#N)c3nc(-c4ccccc4F)c(Cl)cc23)CC1 [Example 106-10, 3-[6-Chloro-7-(2-fluorophenyl)-2-oxo-4-(4-prop-2-enoylpiperazin-1-yl)pyrido[2,3-d]pyrimidin-1-yl]-2,2-dimethyl-propanenitrile]",12.1 µM
9,"CC#CC(=O)N1C[C@H](C)N(c2nc(=O)n(-c3c(C)ccnc3C(C)C)c3nc(-c4ccccc4F)c(F)cc23)C[C@H]1C [Example 119-1, 4-((2S,5R)-4(But-2-ynoyl)-2,5-dimethylpiperazin-1-yl)-6-fluoro-7-(2-fluorophenyl)-1-(2-isopropyl-4-methylpyridin-3-yl)pyrido[2,3-d]pyrimidin-2(1H)-one]",24 µM
10,"Cc1ccnc(C(C)C)c1-n1c(=O)nc(N2C[C@@H](C)N(C(=O)C#CCN(C)C)C[C@@H]2C)c2cc(F)c(-c3ccccc3F)nc21 [Example 119-2, 4-((2S,5R)-4-(4-(Dimethylamino)but-2-ynoyl)-2,5-dimethylpiperazin-1-yl)-6-fluoro-7-(2-fluorophenyl)-1-(2-isopropyl-4-methylpyridin-3-yl)pyrido[2,3-d]pyrimidin-2(1H)-one]",0.33 µM
11,"C=CC(=O)N1C[C@H](C)N(c2nc(=O)n(-c3c(N(C)C)ccnc3C(C)C)c3nc(-c4c(F)cccc4NC(=O)C4CC4)c(Cl)cc23)C[C@H]1C [Example 122-3, N-[2-[6-Chloro-1-[4-(dimethylamino)-2-isopropyl-3-pyridyl]-4-[(2S,5R)-2,5-dimethyl-4-prop-2-enoyl-piperazin-1-yl]-2-oxo-pyrido[2,3-d]pyrimidin-7-yl]-3-fluoro-phenyl]cyclopropanecarboxamide]",0.503 µM
12,"C=CC(=O)N1C[C@H](C)N(c2nc(=O)n(-c3c(C(C)C)ccnc3C(C)C)c3nc(-c4ccccc4C)c(F)cc23)C[C@H]1C [Example 124-5, 1-(2,4-Diisopropyl-3-pyridyl)-4-[(2S,5R)-2,5-dimethyl-4-prop-2-enoyl-piperazin-1-yl]-6-fluoro-7-(o-tolyl)pyrido[2,3-d]pyrimidin-2-one]",0.439 µM
13,"C=CC(=O)N1C[C@H](C)N(c2nc(=O)n(-c3c(CN(CC)C(C)C)ccnc3C(C)C)c3nc(-c4ccccc4C(C)C)c(Cl)cc23)C[C@H]1C [Example 141-2, 6-Chloro-4-[(2S,5R)-2,5-dimethyl-4-prop-2-enoyl-piperazin-1-yl]-1-[4-[[ethyl(isopropyl)amino]methyl]-2-isopropyl-3-pyridyl]-7-(2-isopropylphenyl)pyrido[2,3-d]pyrimidin-2-one]",0.279 µM
14,"C=CC(=O)N1C[C@H](C)N(c2nc(=O)n3c4nc(c(Cl)cc24)-c2ccccc2C/C=C\Cc2cccc(C(C)C)c2-3)C[C@H]1C [Example 146-1, (F)-(9Z)-19-Chloro-22-((2S,5R)-2,5-dimethyl-4-(2-propenoyl)-1-piperazinyl)-3-(2-propanyl)-1,23,26-triazapentacyclo[16.6.2.0˜2,7˜.0˜12,17˜0˜21,25-]hexacosa-2,4,6,9,12,14,16,18,20,22,25-undecaen-24-one and (F)-19-chloro-22-((2S,5R)-2,5-dimethyl-4-(2-propenoyl)-1-piperazinyl)-3-(2-propanyl)-1,23,26-triazapentacyclo[6.6.2.0˜2,7˜.0˜12,17˜.0˜21,25˜]hexacosa-2,4,6,9,12,14,16,18,20,22,25-undecaen-24-one]",12.8 µM
15,"C=CC(=O)N1C[C@H](C)N(c2nc(=N)n(CC(C)(C)C)c3nc(-c4ccccc4F)c(Cl)cc23)C[C@H]1C [Example 150, 1-((2R,5S)-4-(6-Chloro-7-(2-fluorophenyl)-2-imino-1-neopentyl-1,2-dihydropyrido[2,3-d]pyrimidin-4-yl)-2,5-dimethylpiperazin-1-yl)prop-2-en-1-one]",0.313 µM
16,"C=CC(=O)N1C[C@H](C)N(c2n/c(=N\C)n(CC(C)(C)C)c3nc(-c4ccccc4F)c(Cl)cc23)C[C@H]1C [Example 151, 1-((2R,5S)-4-((Z)-6-Chloro-7-(2-fluorophenyl)-2-(methylimino)-1-neopentyl-1,2-dihydropyrido[2,3-d]pyrimidin-4-yl)-2,5-dimethylpiperazin-1-yl)prop-2-en-1-one 2,2,2-trifluoroacetate]",0.348 µM
17,"C=CC(=O)N1C[C@H](C)N(c2nc(=O)n(-c3ccccc3C(C)C)c3c2CCN(c2ccccc2)C3)C[C@H]1C [Example 152, 4-((2S,5R)-4-Acryloyl-2,5-dimethylpiperazin-1-yl)-1-(2-isopropylphenyl)-7-phenyl-5,6,7,8-tetrahydropyrido[3,4-d]pyrimidin-2(1H)-one]",132 µM
